Assay results as given in US11661426B2, “Imidazole-containing inhibitors of ALK2 kinase” (BioCryst Pharmaceuticals, Inc., priority 2017, dated 2023).

Molecular target: ALK2 (Homo sapiens (Human), UniProt Q04771)
Assay: ALK2 inhibition, LanthaScreen Eu Kinase Binding Assay (ThermoFisher Scientific / Life Technologies)
Conditions: read-out: Measured Ki (IC50) Value for Compounds: IC50
Protocol: Biochemical assays to measure the inhibitory effects of the compounds were performed by ThermoFisher Scientific (Life Technologies). ALK2 inhibition was tested using LanthaScreen™ Eu Kinase Binding Assay screening protocol.

ALK2, sequence (Q04771 21-509): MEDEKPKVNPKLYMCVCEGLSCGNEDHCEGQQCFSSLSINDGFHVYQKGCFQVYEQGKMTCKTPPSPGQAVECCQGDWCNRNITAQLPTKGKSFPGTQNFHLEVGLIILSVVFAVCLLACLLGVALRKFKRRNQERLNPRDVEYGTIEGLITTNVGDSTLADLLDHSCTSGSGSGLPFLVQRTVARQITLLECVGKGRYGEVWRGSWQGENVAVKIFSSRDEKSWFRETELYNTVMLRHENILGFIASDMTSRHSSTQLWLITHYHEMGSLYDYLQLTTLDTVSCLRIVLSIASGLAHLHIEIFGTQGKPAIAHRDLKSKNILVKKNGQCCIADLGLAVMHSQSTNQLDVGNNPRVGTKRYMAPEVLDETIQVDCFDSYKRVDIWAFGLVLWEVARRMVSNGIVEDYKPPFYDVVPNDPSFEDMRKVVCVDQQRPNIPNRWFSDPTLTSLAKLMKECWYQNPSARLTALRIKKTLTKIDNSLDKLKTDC

Structure (SMILES)	IC50 [nM]
COc1cc(-n2cnc(Nc3ncnn4cccc34)c2)cc(OC)c1OC [Compound 187b, N-(1-(3,4,5-trimethoxyphenyl)-1H-imidazol-4-yl)pyrrolo[2,1-f][1,2,4]triazin-4-amine]	< 100
COc1cc(-n2cnc(Nc3nc(N4CCC[C@H]4C(N)=O)c4c(ccn4S(=O)(=O)c4ccc(C)cc4)n3)c2)cc(OC)c1OC [Compound 191b, (S)-1-(5-tosyl-2-((1-(3,4,5-trimethoxyphenyl)-1H-imidazol-4-yl)amino)-5H-pyrrolo[3,2-d]pyrimidin-4-yl)pyrrolidine-2-carboxamide]	< 100
COc1cc(-n2cnc(Nc3nc4c(c(N5CCC[C@H]5C(N)=O)n3)CNCC4)c2)cc(OC)c1OC [Compound 193c, (S)-1-(2-((1-(3,4,5-trimethoxyphenyl)-1H-imidazol-4-yl)amino)-5,6,7,8-tetrahydropyrido[4,3-d]pyrimidin-4-yl)pyrrolidine-2-carboxamide]	< 100
COc1cc(-n2cnc(Nc3nc4c(c(N5CCC[C@H]5C(N)=O)n3)CCNC4)c2)cc(OC)c1OC [Compound 194c, (S)-1-(2-((1-(3,4,5-trimethoxyphenyl)-1H-imidazol-4-yl)amino)-5,6,7,8-tetrahydropyrido[3,4-d]pyrimidin-4-yl)pyrrolidine-2-carboxamide]	< 100
COc1cc(-n2cnc(Nc3cc4ccccc4cn3)c2)cc(OC)c1OC [Compound 195b, N-(1-(3,4,5-trimethoxyphenyl)-1H-imidazol-4-yl)isoquinolin-3-amine]	< 100
COc1cc(-n2cnc(Nc3nc(N4CCC[C@H]4C(N)=O)c4ncsc4n3)c2)cc(OC)c1OC [Compound 196b, (S)-1-(5-((1-(3,4,5-trimethoxyphenyl)-1H-imidazol-4-yl)amino)thiazolo[5,4-d]pyrimidin-7-yl)pyrrolidine-2-carboxamide]	< 100
COc1cc(-n2cnc(Nc3nc(N4CCC[C@H]4CO)c4cccc(OC(C)C)c4n3)c2)cc(OC)c1OC [Compound 200b, (S)-(1-(8-isopropoxy-2-((1-(3,4,5-trimethoxyphenyl)-1H-imidazol-4-yl)amino)quinazolin-4-yl)pyrrolidin-2-yl)methanol]	< 100
COc1cc(-n2cnc(Nc3ncc4c(n3)CN(Cc3ccccc3)CC4)c2)cc(OC)c1OC [Compound 202b, 7-benzyl-N-(1-(3,4,5-trimethoxyphenyl)-1H-imidazol-4-yl)-5,6,7,8-tetrahydropyrido[3,4-d]pyrimidin-2-amine]	< 100
COc1cc(-n2cnc(Nc3nc(N4CCC[C@H]4C(N)=O)c4cccnc4n3)c2)cc(OC)c1OC [Compound 203b, (S)-1-(2-((1-(3,4,5-trimethoxyphenyl)-1H-imidazol-4-yl)amino)pyrido[2,3-d]pyrimidin-4-yl)pyrrolidine-2-carboxamide]	100 to 1000
COc1cc(-n2cnc(Nc3nc(N4CCC[C@H]4C(N)=O)c4cccc(OC(C)C)c4n3)c2)cc(OC)c1OC [Compound 205b, (S)-1-(8-isopropoxy-2-((1-(3,4,5-trimethoxyphenyl)-1H-imidazol-4-yl)amino)quinazolin-4-yl)pyrrolidine-2-carboxamide]	100 to 1000
COc1cc(-n2cnc(Nc3nc(N4CCCC4)c4sccc4n3)c2)cc(OC)c1OC [Compound 207b, 4-(pyrrolidin-1-yl)-N-(1-(3,4,5-trimethoxyphenyl)-1H-imidazol-4-yl)thieno[3,2-d]pyrimidin-2-amine]	< 100
COc1cc(-n2cnc(Nc3ccc4ccc(Nc5cn(-c6cc(OC)c(OC)c(OC)c6)cn5)cc4c3)c2)cc(OC)c1OC [Compound 208b, N^2,N^7-bis(1-(3,4,5-trimethoxyphenyl)-1H-imidazol-4-yl)naphthalene-2,7-diamine]	< 100
COc1cc(-n2cnc(Nc3nc(N4CC[C@H](O)C4)c4cccn4n3)c2)cc(OC)c1OC [Compound 211b, (S)-1-(2-((1-(3,4,5-trimethoxyphenyl)-1H-imidazol-4-yl)amino)pyrrolo[2,1-f][1,2,4]triazin-4-yl)pyrrolidin-3-ol]	< 100
COc1cc(-n2cnc(Nc3nc4c(c(N5CCC[C@H]5C(N)=O)n3)CN(Cc3ccccc3)CC4)c2)cc(OC)c1OC [Compound 213b, (S)-1-(6-benzyl-2-((1-(3,4,5-trimethoxyphenyl)-1H-imidazol-4-yl)amino)-5,6,7,8-tetrahydropyrido[4,3-d]pyrimidin-4-yl)pyrrolidine-2-carboxamide]	< 100
COc1cc(-n2cnc(Nc3nc(N4C[C@H](O)C[C@H]4CO)c4cccn4n3)c2)cc(OC)c1OC [Compound 214b, (3R,5S)-5-(hydroxymethyl)-1-(2-((1-(3,4,5-trimethoxyphenyl)-1H-imidazol-4-yl)amino)pyrrolo[2,1-f][1,2,4]triazin-4-yl)pyrrolidin-3-ol]	< 100
COc1cc(-n2cnc(Nc3nc4c(c(N5CCC[C@H]5CO)n3)CCN(Cc3cccc(OC(F)(F)F)c3)C4)c2)cc(OC)c1OC [Compound 217a, (S)-(1-(7-(3-(trifluoromethoxy)benzyl)-2-((1-(3,4,5-trimethoxyphenyl)-1H-imidazol-4-yl)amino)-5,6,7,8-tetrahydropyrido[3,4-d]pyrimidin-4-yl)pyrrolidin-2-yl)methanol]	< 100

Second part, the compound after the results:

IC50 [nM]	Structure (SMILES)
< 100	COc1cc(-n2cnc(Nc3nc(N4CCCC4)nc4cccnc34)c2)cc(OC)c1OC [Compound 188a, 2-(pyrrolidin-1-yl)-N-(1-(3,4,5-trimethoxyphenyl)-1H-imidazol-4-yl)pyrido[3,2-d]pyrimidin-4-amine]
< 100	COc1cc(-n2cnc(Nc3nc(N4CCC[C@H]4C(N)=O)nc4ccsc34)c2)cc(OC)c1OC [Compound 189a, (S)-1-(4-((1-(3,4,5-trimethoxyphenyl)-1H-imidazol-4-yl)amino)thieno[3,2-d]pyrimidin-2-yl)pyrrolidine-2-carboxamide]
< 100	COc1cc(-n2cnc(Nc3nc(N4CCC[C@H]4C(N)=O)nc4ccoc34)c2)cc(OC)c1OC [Compound 190a, (S)-1-(4-((1-(3,4,5-trimethoxyphenyl)-1H-imidazol-4-yl)amino)furo[3,2-d]pyrimidin-2-yl)pyrrolidine-2-carboxamide]
< 100	COc1cc(-n2cnc(Nc3nc(N4CCC[C@H]4C(N)=O)c4[nH]ccc4n3)c2)cc(OC)c1OC [Compound 191c, (S)-1-(2-((1-(3,4,5-trimethoxyphenyl)-1H-imidazol-4-yl)amino)-5H-pyrrolo[3,2-d]pyrimidin-4-yl)pyrrolidine-2-carboxamide]
< 100	COc1cc(-n2cnc(Nc3nc(N4CCCC4)c4cccnc4n3)c2)cc(OC)c1OC [Compound 192b, 4-(pyrrolidin-1-yl)-N-(1-(3,4,5-trimethoxyphenyl)-1H-imidazol-4-yl)pyrido[2,3-d]pyrimidin-2-amine]
< 100	COc1cc(-n2cnc(Nc3nc(N4CCCC4)nc4scnc34)c2)cc(OC)c1OC [Compound 197a, 5-(pyrrolidin-1-yl)-N-(1-(3,4,5-trimethoxyphenyl)-1H-imidazol-4-yl)thiazolo[5,4-d]pyrimidin-7-amine]
100 to 1000	COc1cc(-n2cnc(Nc3ncc4ccccc4n3)c2)cc(OC)c1OC [Compound 198b, N-(1-(3,4,5-trimethoxyphenyl)-1H-imidazol-4-yl)quinazolin-2-amine]
> 1000	COc1cc(-n2cnc(Nc3nc(N4CCCC4)c4c(ccn4S(=O)(=O)c4ccc(C)cc4)n3)c2)cc(OC)c1OC [Compound 199b, 4-(pyrrolidin-1-yl)-5-tosyl-N-(1-(3,4,5-trimethoxyphenyl)-1H-imidazol-4-yl)-5H-pyrrolo[3,2-d]pyrimidin-2-amine]
< 100	COc1cc(-n2cnc(Nc3ncc4c(n3)CCN(Cc3ccccc3)C4)c2)cc(OC)c1OC [Compound 201b, 6-benzyl-N-(1-(3,4,5-trimethoxyphenyl)-1H-imidazol-4-yl)-5,6,7,8-tetrahydropyrido[4,3-d]pyrimidin-2-amine]
100 to 1000	COc1cc(-n2cnc(Nc3nc(N4CCC[C@H]4C(N)=O)c4ccccc4n3)c2)cc(OC)c1OC [Compound 204b, (S)-1-(2-((1-(3,4,5-trimethoxyphenyl)-1H-imidazol-4-yl)amino)quinazolin-4-yl)pyrrolidine-2-carboxamide]
< 100	COc1cc(-n2cnc(Nc3nc(N4CCC[C@H]4C(F)(F)F)c4cccn4n3)c2)cc(OC)c1OC [Compound 206b, (S)-4-(2-(trifluoromethyl)pyrrolidin-1-yl)-N-(1-(3,4,5-trimethoxyphenyl)-1H-imidazol-4-yl)pyrrolo[2,1-f][1,2,4]triazin-2-amine]
< 100	COc1cc(-n2cnc(Nc3nc(N4CC[C@@H](O)C4)c4cccn4n3)c2)cc(OC)c1OC [Compound 209b, (R)-1-(2-((1-(3,4,5-trimethoxyphenyl)-1H-imidazol-4-yl)amino)pyrrolo[2,1-f][1,2,4]triazin-4-yl)pyrrolidin-3-ol]
< 100	COc1cc(-n2cnc(Nc3nc(N4CCC[C@@H]4C(N)=O)nn4cccc34)c2)cc(OC)c1OC [Compound 210a, (R)-1-(4-((1-(3,4,5-trimethoxyphenyl)-1H-imidazol-4-yl)amino)pyrrolo[2,1-f][1,2,4]triazin-2-yl)pyrrolidine-2-carboxamide]
< 100	COc1c(C(C)=O)ccc(-n2cnc(Nc3nc(N4CCC[C@H]4CO)nn4cccc34)c2)c1OC [Compound 212g, (S)-1-(4-(4-((2-(2-(hydroxymethyl)pyrrolidin-1-yl)pyrrolo[2,1-f][1,2,4]triazin-4-yl)amino)-1H-imidazol-1-yl)-2,3-dimethoxyphenyl)ethanone]
< 100	COc1cc(-n2cnc(Nc3nc4c(c(N5CCC[C@H]5CO)n3)CCN(Cc3ccc(C(F)(F)F)cc3)C4)c2)cc(OC)c1OC [Compound 215a, (S)-(1-(7-(4-(trifluoromethyl)benzyl)-2-((1-(3,4,5-trimethoxyphenyl)-1H-imidazol-4-yl)amino)-5,6,7,8-tetrahydropyrido[3,4-d]pyrimidin-4-yl)pyrrolidin-2-yl)methanol]
< 100	COc1cc(-n2cnc(Nc3nc4c(c(N5CCC[C@H]5CO)n3)CCN(Cc3cccnc3)C4)c2)cc(OC)c1OC [Compound 216a, (S)-(1-(7-(pyridin-3-ylmethyl)-2-((1-(3,4,5-trimethoxyphenyl)-1H-imidazol-4-yl)amino)-5,6,7,8-tetrahydropyrido[3,4-d]pyrimidin-4-yl)pyrrolidin-2-yl)methanol]
